Test results reported in patent publication US20170370929A1, “POSITIVE ALLOSTERIC MODULATORS OF THE DELTA-OPIOID RECEPTOR” (BRISTOL-MYERS SQUIBB COMPANY, priority 2014, published 2017).

How the values were obtained:
μ receptor = μ receptor (Homo sapiens, UniProt P35372); assay: PathHunter β-arrestin recruitment assay in CHO-OPRM1 cells; assay type: cell-based; conditions: PAM mode, up to the highest concentration tested (10 μM)
δ receptor = δ receptor (Homo sapiens, UniProt P41143); assay: PathHunter β-arrestin recruitment assay in CHO-OPRD1 cells; assay type: cell-based
δ receptor, sequence (P41143 whole entry): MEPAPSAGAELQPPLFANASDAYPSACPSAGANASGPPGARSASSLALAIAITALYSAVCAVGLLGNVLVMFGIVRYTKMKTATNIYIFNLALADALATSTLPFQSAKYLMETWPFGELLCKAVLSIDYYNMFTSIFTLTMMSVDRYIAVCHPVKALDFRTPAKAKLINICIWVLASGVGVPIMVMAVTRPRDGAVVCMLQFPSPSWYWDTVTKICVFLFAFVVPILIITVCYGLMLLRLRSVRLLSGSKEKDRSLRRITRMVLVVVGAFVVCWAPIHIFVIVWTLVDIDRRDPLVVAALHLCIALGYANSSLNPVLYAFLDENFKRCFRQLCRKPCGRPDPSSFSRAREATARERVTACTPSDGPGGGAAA

μ receptor, sequence (P35372 whole entry): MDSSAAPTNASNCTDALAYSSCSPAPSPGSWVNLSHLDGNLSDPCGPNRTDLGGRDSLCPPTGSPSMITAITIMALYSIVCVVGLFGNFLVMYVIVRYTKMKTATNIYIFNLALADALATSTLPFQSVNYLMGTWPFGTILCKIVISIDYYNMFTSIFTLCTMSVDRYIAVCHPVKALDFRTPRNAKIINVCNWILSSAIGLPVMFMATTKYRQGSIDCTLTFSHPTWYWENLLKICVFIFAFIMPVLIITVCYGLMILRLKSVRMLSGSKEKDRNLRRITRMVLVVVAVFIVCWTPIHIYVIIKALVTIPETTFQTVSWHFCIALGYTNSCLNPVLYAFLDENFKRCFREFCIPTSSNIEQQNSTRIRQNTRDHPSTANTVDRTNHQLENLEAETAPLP

| PAM activity at the μ receptor (μ receptor) | PAM activity at the δ receptor (in words) (δ receptor; PAM mode, β-arrestin recruitment) | EC50 (δ receptor; PAM mode, in the presence of an EC20 of leu-enkephalin, CHO-OPRD1 cells) | selectivity compared with PAM activity at the μ receptor (δ receptor; β-arrestin recruitment assay, δ versus μ receptor PAM activity) | Compound |
| --- | --- | --- | --- | --- |
| no observable PAM activity | equipotent PAM activity to 2 |  |  | CC1(C)CC(=O)C2=C(C1)OC1=C(C(=O)CC(C)(C)C1)C2c1ccc(OCc2ccccc2Br)cc1 [Analog 10, 9-(4-((2-bromobenzyl)oxy)phenyl)-3,3,6,6-tetramethyl-3,4,5,6,7,9-hexahydro-1H-xanthene-1,8(2H)-dione] |
|  |  | 200 nM | 30 fold | CC1(C)CC(=O)C2=C(C1)OC1=C(C(=O)CC(C)(C)C1)C2c1ccc(OCc2ccccc2)cc1 [Analog 1] |
